This is an account of results in patent publication US20240109852A1, “Ferroptosis-HDAC Inhibitor Hybrid Anticancer Agents” (The University of Toledo, priority 2022, published 2024).

Broadly, the IC50 is the concentration needed to halve the response being measured. By GI50 is commonly meant the concentration at which growth is held to half of that of the control.

Data set [1] deals with SH-SY5Y cell line (human neuroblastoma). The experiment in a line: MTT cell viability assay on SH-SY5Y neuronal cells. Conditions: for effect on neuronal cells (neurotoxicity), SH-SY5Y viability: 0.5×IC50, 1×IC50, 2×IC50 of the corresponding control on H522. It is filed as cell-based. The procedure: Human neuroblastoma cells (SH-SY5Y) were grown on poly-D-lysine coated plates and cultured in DMEM/F12 medium (HyClone, Thermo Scientific) containing 10% fetal bovine serum and 1% penicillin-streptomycin. Cells were maintained in a 37° C. incubator with a 5% CO2 atmosphere. Cells were seeded at a density of 15,000 cells in 96 well plates for 36 hr before treatment of drugs. […] G4102) according to the manufacturer's instructions. Cells were treated with amide series analogs for 24 hrs. Briefly, the cells were incubated with MTT reagent for 2 h at 37° C. incubator. Then, the solubilization/stop solution was added to solubilize the formazan products, incubated for 1 hr, and absorbance at 570 was measured using micro-plate reader (SynergyH1, BioTek, USA). DMSO was used a vehicle control. The experimental data represent the means±SD (*P<0.05) of triplicates from three separate experiments. The statistical significance was determined by one-way ANOVA and significant differences P<0.05, P<0.01, P<0.001, and P<0.0001 are symbolized as *, **, ***, and ****, respectively.

Data set [2] relates to PC-12 (pheochromocytoma) cells. The experiment in a line: MTT cytotoxicity on undifferentiated and differentiated PC-12 cells. It is filed as cell-based. The following applies: both non-differentiated and NGF-differentiated states. The procedure: Pheochromocytoma (PC-12) cells were grown on poly-D-lysine coated plates and cultured in DMEM/F12 medium (HyClone, Thermo Scientific) containing 5% fetal bovine serum, 5% horse serum, and 1% penicillin-streptomycin. Cells were maintained in a 37° C. incubator with a 5% CO2 atmosphere. Cells were seeded at a density of 15,000 cells per well in 96 well plates for 36 hr before treatment with the test compounds. The MTT assay was performed after 24 hr of treatment.
Pheochromocytoma (PC-12) cells were seeded on poly-D-lysine coated plates containing neuron differentiation medium (100 ng nerve growth factor, DMEM/F12, 5% fetal bovine serum, 5% horse serum, and 1% penicillin-streptomycin) and grown for 5 days to differentiate to neurons. Cells were maintained in a 37° C. incubator with a 5% CO2 atmosphere. Cells were trypsinized, and seeded at a density of 15,000 cells/well in 96 well plates with neuron differentiation medium for 36 hr before treatment with the test compounds. The MTT assay was performed after 24 hr of treatment.

Data set [3] concerns HCT116 human colorectal carcinoma cells. The experiment in a line: Cell viability assay (methylene blue staining), HCT-116. It is filed as cell-based. Conditions: HCT-116, 72 h, read-out: IC50 ± SD (n = 3) on HCT-116 cell line.
Description: (§2) Cell viability was assessed using methylene blue staining: cells were plated at 5000/well in 96 well plates (n=3) respectively and treated the next day. Three days after treatment cells were fixed/stained in methylene blue saturated in 50% ethanol for 30 min at RT. Plates were washed with excess water to wash off extra dye.
The subject of data set [4] is NCI-H522 human lung cancer cells. In words: Cell viability assay (methylene blue staining), NCI-H522. The following applies: NCI-H522, 72 h, read-out: IC50 ± SD (n = 3) on NCI-H522 cell line. It is filed as cell-based.
Description: as §2
Data set [5] deals with NCI-60 human tumor cell lines. In words: NCI-60 five dose assay, whole panel. It is filed as cell-based.
For data set [6], the system named is SF-539 cell line (CNS cancer). In words: NCI-60 five dose assay, SF-539. It is filed as cell-based. Conditions: Homo sapiens.
Data set [7] has as its system LOXIMVI (melanoma cell line). In words: NCI-60 five dose assay, LOXIMVI. The class given is cell-based. The following applies: Homo sapiens, LOX IMVI, read-out: GI50, LOXIMVI.
In data set [8] the test system is NCI-H23 (NSC lung cancer cell line). The experiment in a line: NCI-60 five dose assay, NCI-H23. The following applies: Homo sapiens. It is filed as cell-based.
The subject of data set [9] is PC-3 (prostate cancer cell line). In words: NCI-60 five dose assay, PC-3. It is filed as cell-based. The following applies: Homo sapiens, read-out: GI50, PC-3.
Data set [10] relates to HS578 (breast cancer cell line). The experiment in a line: NCI-60 five dose assay, HS578. The class given is cell-based. The following applies: Homo sapiens.
Data set [11] relates to DU-145 cells (prostate cancer). Conditions: one dose; SAHA data from the public data base of NCI; cited from earlier work.
Another data set deals with NCI-H522 cells. The experiment in a line: Time-lapse microscopy of cell death in NCI-H522 cells. The class given is cell-based, human. Conditions: for time from initiation of ferroptosis until most/all cells were dead: CETZOLE-1 20 μM (most cells), HY-1 5 μM (all cells); for time of initiation of ferroptosis after treatment: CETZOLE-1 20 μM, HY-1 5 μM. The procedure:
For time lapse imaging, NCI-H522 cells were plated at ˜70% density and left overnight to adhere and pre-equilibrate to 10% CO2. The next day cells were treated with DMSO or inhibitors, and the flask was maintained sealed. Flasks were placed on a 37° C. heated stage on an inverted microscope. Images were captured every 12 min and for a total of 300 images using a ×40 microscope objective and an Olympus C740 digital camera controlled by AmScope software. Image analysis was done using Image J. For the Kaplan-Maier graphs at least 100 cells were counted and the event of cell death was measured on a time frame of either 1 h or 0.2 h.

Data set [12] deals with NCI-H23 cell line (NSC-Lung cancer). Conditions: one dose; SAHA data from the public data base of NCI; cited from earlier work.
Data set [13] relates to DU-145 (prostate cancer cell line). In words: NCI-60 five dose assay, DU-145. It is filed as cell-based. Conditions: Homo sapiens.
The subject of data set [14] is IGROV-1 (ovarian cancer cell line). In words: NCI-60 five dose assay, IGROV-1. It is filed as cell-based. Conditions: Homo sapiens.
Data set [15] relates to hTERT-immortalized RPE cells (retinal pigment epithelial cells). The experiment in a line: Cell viability assay (methylene blue staining), RPE normal cells. The class given is cell-based, human.
Description: as §2
Data set [16] relates to lipid peroxides in NCI-H522 cells. The experiment in a line: C11-BODIPY lipid peroxidation assay (flow cytometry). The class given is cell-based, human. The following applies: NCI-H522, 10 μM, within 6 hours of treatment. The procedure:
NCI-H522 cells (˜70% density) were plated on 7 cm dishes and let overnight to adhere. […] After 6 h, cells were washed with 1×PBS and collected by trypsinization and centrifugation. The cells were washed once with 1×PBS and resuspended in PBS containing 2% FBS. Cells were analyzed using a BD LSR Fortessa FACScanner and FlowJo software. For each sample 20×10^3 cells were analyzed.
(In flow cytometry, cells or beads pass a laser one at a time.)

For data set [17], the system named is NCI-60 human tumor cell lines. In words: NCI-60 one dose assay, whole panel. The class given is cell-based. Conditions: compared to other hybrids, HDAC controls and SAHA.
Data set [18] relates to RPMI-8226 (leukemia cell line). In words: NCI-60 five dose assay, RPMI-8226. Conditions: Homo sapiens, RPMI-8226, read-out: GI50, RPMI-8226. It is filed as cell-based.
Data set [19] relates to WI-38 cells (normal human lung fibroblasts). In words: Cell viability assay (methylene blue staining), WI-38 normal cells. Conditions: concentration of therapeutic relevance (2 μM), mesenchymal system. The class given is cell-based.
Description: as §2
Data set [20] concerns acetyl tubulin (class II, HDAC-6 substrate). The experiment in a line: Western blot, acetyl tubulin in NCI-H522 cells. Conditions: NCI-H522, concentration of 5 μM. The class given is cell-based, human. The source says:
(§1) Bound antibodies were detected using enhanced chemiluminescence (Biorad).
A general note: In western blotting, separated proteins are transferred to a membrane and probed.

Data set [21] deals with acetyl-H3 (K9) (histones, HDAC class I substrate). The experiment in a line: Western blot, acetyl-H3 (K9) in NCI-H522 cells. It is filed as cell-based, human. The following applies: NCI-H522, concentration of 5 μM.
Description: as §1

Like-named read-outs stand apart in the source and are kept apart here.

With `C#Cc1nc(C(=O)NCCCCCCC(=O)OC)cs1` [FC-1, Methyl 7-(2-ethynylthiazole-4-carboxamido)heptanoate], the “effect on neuronal cells (neurotoxicity), SH-SY5Y viability” value (from here on “effect on neuronal cells (neurotoxicity)”) in [1] is given as “significant neurotoxicity”. Besides, the “sensitivity of differentiated and undifferentiated PC-12 cells” value in data set [2] is “resistant”.

On to `C#Cc1nc(/C=C/CCCCCC(=O)NO)cs1` [HY-3, (E)-8-(2-ethynylthiazol-4-yl)-N-hydroxyoct-7-enamide], for which the IC50 in data set [3] was 4.96 µM; in data set [4], 1590 nM. For the same molecule, the GI50 in data set [5] (read-out: average GI50) amounted to 3390 nM.

`COC(=O)CCCCCCNC(=O)c1csc(Br)n1` [NC-1, Methyl 7-(2-bromothiazole-4-carboxamido)heptanoate]: in data set [1], the “effect on neuronal cells (neurotoxicity)” value is “no effect”.

Turning to `O=C(CCCCCCC(=O)Nc1ccccc1)NO` [SAHA], the GI50 in data set [6] (SF-539, five dose assay, read-out: GI50, SF-539) turned out to be 2000 nM; in data set [7] (five dose assay) it was 1250 nM; in data set [8] (NCI-H23, five dose assay, read-out: GI50, NCI-H23), 2000 nM; in data set [9] (five dose assay) it was 1580 nM; in [10], 2000 nM; in data set [5] (five dose assay, mean over approximately sixty cell lines, read-out: average GI50) it was 1210 nM. Further, the GI50 in data set [13] (DU-145, five dose assay, read-out: GI50, DU-145) came to 1250 nM; in data set [14] (IGROV-1, five dose assay, read-out: GI50, IGROV-1), 2000 nM. In addition, the “Growth %, DU-145 (NCI public data base)” value in data set [11] is given as 3.5%. For the same molecule, the “time after treatment at which cells were still alive” value in the data set with NCI-H522 cells (SAHA 5 μM) was no less than 60 h. The “Growth %, NCI-H23 (NCI public data base)” value in [12] is listed as 3.30%.

For the molecule `C#Cc1nc(C(=O)NCCCCCCC(=O)NO)cs1` [HY-1, 2-Ethynyl-N-(7-(hydroxyamino)-7-oxoheptyl)thiazole-4-carboxamide], in data set [1] (concentrations of therapeutic relevance (2.32 μM)), the “neurotoxic effects, SH-SY5Y viability” value is on record as “no neurotoxic effects”. In addition, the GI50 in data set [6] (SF-539, read-out: GI50, SF-539) was 1000 nM; in [7], 20 nM; in data set [8] (NCI-H23, read-out: GI50, NCI-H23), 780 nM; in [9], 2000 nM; in [5] (read-out: GI50 values as low as) it was no less than 20 nM; in data set [5] (read-out: average GI50), 850 nM. The GI50 in [13] (DU-145, read-out: GI50, DU-145) amounted to 360 nM; in data set [14] (IGROV-1, read-out: GI50, IGROV-1) it was 570 nM; in data set [18], 350 nM. Further, the “sensitivity of differentiated and undifferentiated PC-12 cells” value in data set [2] is “behaved like the HDAC control HC-1”. In addition, in data set [15] (concentration of therapeutic relevance (2 μM), epithelial system), the “toxicity on normal cells (RPE)” value is on record as “no toxicity was observed on the normal cells”. Besides, the “lipid peroxide levels (oxidized C11-BODIPY 581/591)” value in data set [16] is “increased levels of lipid peroxides”. Besides, in [17], the “cytotoxicity profile in the NCI-60 screen” value is listed as “best cytotoxicity profile”. Further, the “time from initiation of ferroptosis until most/all cells were dead” value with NCI-H522 cells is no more than 2 h. For the same molecule, the “time of initiation of ferroptosis after treatment” value in the data set on NCI-H522 cells was 8 h. For the same molecule, the “toxic effects on normal cells (WI-38)” value in data set [19] was “no toxic effects on normal cells”.

With `C#Cc1nc(C2=C(C)C(O)CC2)cs1` (centres unmarked) [CETZOLE-1, reference compound], the IC50 in data set [15] (normal RPE epithelial cells, FBS media (FIGS. 11A, 11C), read-out: IC50 on RPE (selectivity study)) is greater than 30 µM. In the data set with NCI-H522 cells, the “time from initiation of ferroptosis until most/all cells were dead” value was no more than 8 h and the “time of initiation of ferroptosis after treatment” value is given as “approximately 12 hours”.

Turning to `O=C(CCCCCCNC(=O)c1csc(Br)n1)NO` [HC-1, 2-Bromo-N-(7-(hydroxyamino)-7-oxoheptyl)thiazole-4-carboxamide], the “effect on neuronal cells (neurotoxicity)” value in data set [1] is on record as “very mild toxicity”. Further, the GI50 in [5] (read-out: average GI50) is 1510 nM.

As for `C#Cc1nc(/C=C/C=C/C(=O)NO)cs1` [HY-4, (2E,4E)-5-(2-ethynylthiazol-4-yl)-N-hydroxypenta-2,4-dienamide], the “effect on neuronal cells (neurotoxicity)” value in data set [1] is “not showing attenuated neurotoxicity”. The “cytotoxicity profile in the NCI-60 screen” value in [17] is “worst cytotoxicity profile”.

For `C#Cc1nc(/C=C\CCCCCC(=O)NO)cs1` [HY-2, (Z)-8-(2-ethynylthiazol-4-yl)-N-hydroxyoct-7-enamide], the IC50 was determined as 1.19 µM in [3] and 1070 nM in data set [4]. Moreover, the GI50 in [5] (read-out: average GI50) was found to be 2180 nM.

As to `C#Cc1nc(/C=C/C(=O)NO)cs1` [HY-5, (E)-3-(2-ethynylthiazol-4-yl)-N-hydroxyacrylamide], the “tubulin hyperacetylation at 5 μM” value in data set [20] is “tubulin hyperacetylation”. The GI50 in data set [5] (read-out: average GI50) was found to be 2470 nM. Moreover, the “H3 hyperacetylation at 5 μM” value in data set [21] was “did not show any H3 hyperacetylation”.
